Data set [1] is described as follows: Aqueous solubility, pION method.
The nature of data set [2]: HPLC-based lipophilicity (Log D7.4). Conditions: for chromatographic logD: pH 7.4.
The target of data set [3] is T1, hP2Y14R (Homo sapiens, UniProt Q15391).
T1 construct: expressed in transfected cells; host or cells: CHO cells
T1 sequence (Q15391 1-338): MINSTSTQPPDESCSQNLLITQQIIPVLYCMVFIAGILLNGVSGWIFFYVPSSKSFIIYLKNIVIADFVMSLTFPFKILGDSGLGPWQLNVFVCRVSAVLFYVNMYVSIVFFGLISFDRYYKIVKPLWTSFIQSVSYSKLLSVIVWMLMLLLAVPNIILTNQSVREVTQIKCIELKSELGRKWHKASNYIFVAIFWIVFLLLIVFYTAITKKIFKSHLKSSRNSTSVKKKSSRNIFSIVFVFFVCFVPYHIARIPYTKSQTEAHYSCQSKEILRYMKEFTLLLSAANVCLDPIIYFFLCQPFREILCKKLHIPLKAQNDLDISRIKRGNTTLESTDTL
The experiment in a line: Inhibition of fluorescent antagonist binding in whole hP2Y14R-expressing CHO cells (flow cytometry).

[4] abbreviates: Table 2, whole hP2Y14R-CHO cells, 20 nM fluorescent antagonist 3, mean+SEM, n = 3-6, read-out: IC50.
The mark [5] stands for this setting: Example 5 table, whole cell fluorescent binding assay, read-out: IC50.
Where [6] appears, read: Table 1, fluorescent antagonist 2, hP2Y14R-CHO cells, 3-4 determinations, read-out: IC50, hP2Y14R (μM, mean ± SEM).

≈ marks a conversion by molar mass, not a printed value. Like-named read-outs stand apart in the source and are kept apart here.

The record followed here is patent US20240150290A1, “HETEROCYCLIC P2Y14 RECEPTOR ANTAGONISTS” (priority 2021, published 2024).

Consider `O=C(O)c1cc(-c2ccc(C3CC4CCC3CN4)cc2)c2ccc(-c3ccc(C(F)(F)F)cc3)cc2c1` (racemic) [Compound 126], for which, in data set [1], the “Solubility (ug/mL) pH 4” value was found to be 0.80 ± 0.05 ug/mL and the “Solubility (ug/mL) pH 7.4” value is on record as 0.49 ± 0.06 ug/mL. The same molecule displayed a chromatographic logD in data set [2] of 1.74 ± 0.02.

For the molecule `O=C(O)c1cc(-c2ccc([C@H]3C[C@H]4C[C@@H]3CN4)cc2)c2ccc(-c3ccc(C(F)(F)F)cc3)cc2c1` (racemic) [Compound 112, rac-4-(4-((1S,4S,5S)-2-Azabicyclo[2.2.1]heptan-5-yl)phenyl)-7-(4-(trifluoromethyl)phenyl)-2-naphthoic acid], in data set [1] (pH 7.4, aqueous buffer), the solubility stood at 0.47 ± 0.06 µg/mL (≈ 0.964 µM). The same molecule displayed an IC50 in data set [3] of 0.0059 ± 0.0007 µM. In data set [2], this molecule came in with a chromatographic logD of 1.95 ± 0.01.

As for `CN1C[C@H]2CC[C@@H](C1)[C@]2(O)c1ccc(-c2cc(C(=O)O)cc3cc(-c4ccc(C(F)(F)F)cc4)ccc23)cc1` [Compound 132, 4-(4-((1R,5S,8r)-8-Hydroxy-3-methyl-3-azabicyclo[3.2.1]octan-8-yl)phenyl)-7-(4-(trifluoromethyl)phenyl)-2-naphthoic acid], the solubility in data set [1] (pH 4, aqueous buffer) was 1.81 ± 0.05 µg/mL (≈ 3.4 µM); in data set [1] (pH 7.4, aqueous buffer), 0.88 ± 0.09 µg/mL (≈ 1.66 µM). Besides, in data set [3], the IC50 amounted to 0.0446 ± 0.0017 µM. The molecule also displayed a chromatographic logD in data set [2] of 1.37 ± 0.02.

The molecule `O=C(O)c1cc(-c2ccc(C3(O)C4CCC3CN(Cc3ccccc3)C4)cc2)c2ccc(-c3ccc(C(F)(F)F)cc3)cc2c1` (mixture of isomers) [Compound 130, 4-(4-((1R,5S,8r)-3-Benzyl-8-hydroxy-3-azabicyclo[3.2.1]octan-8-yl)phenyl)-7-(4-(trifluoromethyl)phenyl)-2-naphthoic acid] displayed a chromatographic logD in data set [2] of 3.26 ± 0.01.

`CC1CC(c2ccc(-c3cc(C(=O)O)cc4cc(-c5ccc(C(F)(F)F)cc5)ccc34)cc2)CCN1` (stereo not drawn) [Compound 107, 4-(4-(2-Methylpiperidin-4-yl)phenyl)-7-(4-(trifluoromethyl)phenyl)-2-naphthoic acid]: in data set [1], the “Solubility (ug/mL) pH 4” value was 0.31 ± 0.04 ug/mL and the “Solubility (ug/mL) pH 7.4” value is given as 0.16 ± 0.03 ug/mL. Further, the IC50 in data set [3] (setting [4]) was determined as 0.0178 ± 0.002 µM. In data set [2], this molecule returned a chromatographic logD of 2.05 ± 0.11.

For the molecule `CC(=O)N1C[C@H]2C[C@@H]1C[C@@H]2c1ccc(-c2cc(C(=O)O)cc3cc(-c4ccc(C(F)(F)F)cc4)ccc23)cc1` (racemic) [Compound 113, rac-4-(4-((1S,4S,5S)-2-Acetyl-2-azabicyclo[2.2.1]heptan-5-yl)phenyl)-7-(4-(trifluoromethyl)phenyl)-2-naphthoic acid], the solubility in data set [1] (pH 4, aqueous buffer) is 0.13 ± 0.04 µg/mL (≈ 0.245 µM); in data set [1] (pH 7.4, aqueous buffer) it was 2.53 ± 0.43 µg/mL (≈ 4.78 µM). Moreover, in data set [3] (setting [4]), the concentration for half-maximal inhibition (IC50) was 0.0204 ± 0.0024 µM. The same molecule came in with a chromatographic logD in data set [2] of 0.921 ± 0.034.

`O=C(O)c1cc(-c2ccc([C@@H]3CCN[C@@H]4C[C@@H]43)cc2)c2ccc(-c3ccc(C(F)(F)F)cc3)cc2c1` (racemic) [Compound 111, rac-4-(4-((1R,5R,6R)-2-Azabicyclo[4.1.0]heptan-5-yl)phenyl)-7-(4-(trifluoromethyl)phenyl)-2-naphthoic acid]: the “Solubility (ug/mL) pH 4” value in data set [1] came to 0.24 ± 0.02 ug/mL. Further, in data set [1] (pH 7.4, aqueous buffer), the concentration in solution (solubility) came to 0.05 ± 0.04 µg/mL (≈ 0.103 µM). Besides, the IC50 in data set [3] is 0.0618 ± 0.0141 µM. The chromatographic logD in data set [2] was determined as 1.75 ± 0.06.

Turning to `O=C(O)c1cc(-c2ccc([C@@H]3CCN[C@H]4C[C@H]43)cc2)c2ccc(-c3ccc(C(F)(F)F)cc3)cc2c1` (racemic) [Compound 110, rac-4-(4-((1S,5R,6S)-2-Azabicyclo[4.1.0]heptan-5-yl)phenyl)-7-(4-(trifluoromethyl)phenyl)-2-naphthoic acid], the solubility in data set [1] (pH 4, aqueous buffer) stood at 0.1 ± 0.03 µg/mL (≈ 0.205 µM); in data set [1] (pH 7.4, aqueous buffer) it was 0.51 ± 0.23 µg/mL (≈ 1.05 µM). In data set [3], the IC50 worked out at 0.0424 ± 0.0117 µM. This molecule had a chromatographic logD in data set [2] of 2.59 ± 0.2.

Regarding `O=C(O)c1cc(-c2ccc([C@@]34CCNC[C@@H]3C4)cc2)c2ccc(-c3ccc(C(F)(F)F)cc3)cc2c1` (racemic) [Compound 108, 4-(4-(3-Azabicyclo[4.1.0]heptan-6-yl)phenyl)-7-(4-(trifluoromethyl)phenyl)-2-naphthoic acid], the solubility in data set [1] (pH 4, aqueous buffer) stood at 1.32 ± 0.17 µg/mL (≈ 2.71 µM); in data set [1] (pH 7.4, aqueous buffer) it was 0.17 ± 0.01 µg/mL (≈ 0.349 µM). The molecule also returned an IC50 in data set [3] of 0.0455 ± 0.0072 µM. For the same molecule, the chromatographic logD in data set [2] turned out to be 2.44 ± 0.06.

For `O=C(O)c1cc(-c2ccc([C@]3(O)C[C@H]4CC[C@@H]3CN4)cc2)c2ccc(-c3ccc(C(F)(F)F)cc3)cc2c1` [Compound 125a], in data set [1], the “Solubility (ug/mL) pH 4” value stood at 2.66 ± 0.29 ug/mL and the “Solubility (ug/mL) pH 7.4” value came out at 2.19 ± 0.10 ug/mL. For the same molecule, the “Log D7.4” value in data set [2] (HPLC-based lipophilicity) stood at 0.74 ± 0.05.

The molecule `O=C(O)c1cc(-c2ccc([C@]3(O)C[C@H]4CC[C@@H](C3)N4)cc2)c2ccc(-c3ccc(C(F)(F)F)cc3)cc2c1` [Compound 127, 4-(4-((1R,3r,5S)-3-Hydroxy-8-azabicyclo[3.2.1]octan-3-yl)phenyl)-7-(4-(trifluoromethyl)phenyl)-2-naphthoic acid] had a chromatographic logD in data set [2] of 1.16 ± 0.08.

On to `O=C(O)c1cc(-c2ccc([C@H]3[C@@H]4CNC[C@H]3C4)cc2)c2ccc(-c3ccc(C(F)(F)F)cc3)cc2c1` [Compound 424, 4-(4-((1R,5S,6r)-3-Azabicyclo[3.1.1]heptan-6-yl)phenyl)-7-(4-(trifluoromethyl)phenyl)-2-naphthoic acid], for which, in data set [3] (setting [5]), the IC50 turned out to be 0.524 ± 0.104 µM.

For `CC(C)(C)OC(=O)N1CCC(C(=O)Nc2ccc(-c3cc(C(=O)O)cc(-n4cc(-c5ccc(C(F)(F)F)cc5)nn4)c3)cc2)CC1` [Compound 12, 4′-(1-(tert-Butoxycarbonyl)piperidine-4-carboxamido)-5-(4-(4-(trifluoromethyl)phenyl)-1H-1,2,3-triazol-1-yl)-[1,1′-biphenyl]-3-carboxylic acid], in data set [3] (setting [6]), the half-inhibitory concentration (IC50) came out at 22.5 ± 3.7 µM.

Turning to “4-(4-(6-Methoxy-2-azaspiro[3.3]heptan-6-yl)phenyl)-7-(4-(trifluoromethyl)phenyl)-2-naphthoic acid and 4-(4-(6-(methoxy-d3)-2-azaspiro[3.3]heptan-6-yl)phenyl)-7-(4-(trifluoromethyl)phenyl)-2-naphthoic acid [Compound 409]”, the IC50 in data set [3] (setting [5]) came to 0.0465 ± 0.01 µM.

In data set [2], `O=C(O)c1cc(-c2ccc(C3CCNC3)cc2)c2ccc(-c3ccc(C(F)(F)F)cc3)cc2c1` (racemic) [Compound 105, 4-(4-(Pyrrolidin-3-yl)phenyl)-7-(4-(trifluoromethyl)phenyl)-2-naphthoic acid] showed a chromatographic logD of 1.89 ± 0.07.

In the case of `O=C(O)c1cc(-c2ccc([C@H]3C[C@@H]4CN[C@H]3C4)cc2)c2ccc(-c3ccc(C(F)(F)F)cc3)cc2c1` [Compound 117, 4-(4-((1S,4S,6R)-2-Azabicyclo[2.2.1]heptan-6-yl)phenyl)-7-(4-(trifluoromethyl)phenyl)-2-naphthoic acid], in data set [3] (Table 6, fluorescent hP2Y14R antagonist (3), read-out: hP2Y14R, IC50), the half-maximal inhibitory concentration (IC50) was determined as 0.0259 ± 0.0076 µM. The molecule further returned a chromatographic logD in data set [2] of 2.11 ± 0.06.

`O=C(O)c1cc(-c2ccc([C@@]3(O)C[C@H]4CC[C@@H]3CN4)cc2)c2ccc(-c3ccc(C(F)(F)F)cc3)cc2c1` [Compound 125b]: in data set [1], the “Solubility (ug/mL) pH 4” value stood at 1.55 ± 0.11 ug/mL and the “Solubility (ug/mL) pH 7.4” value was determined as 0.74 ± 0.06 ug/mL.

As for `O=C(O)c1cc(-c2ccc(C3CC4(CNC4)C3)cc2)c2ccc(-c3ccc(C(F)(F)F)cc3)cc2c1` [Compound 406, 4-(4-(2-Azaspiro[3.3]heptan-6-yl)phenyl)-7-(4-(trifluoromethyl)phenyl)-2-naphthoic acid], the IC50 in data set [3] (setting [5]) stood at 0.0466 ± 0.0071 µM.

In the case of `O=C(O)c1cc(-c2ccc(C3=CC4CCC(C3)N4)cc2)c2ccc(-c3ccc(C(F)(F)F)cc3)cc2c1` (stereo not drawn) [Compound 128, 4-(4-(8-Azabicyclo[3.2.1]oct-2-en-3-yl)phenyl)-7-(4-(trifluoromethyl)phenyl)-2-naphthoic acid], in data set [1], the “Solubility (ug/mL) pH 4” value turned out to be 2.36 ± 0.01 ug/mL and the “Solubility (ug/mL) pH 7.4” value is 0.35 ± 0.04 ug/mL. In data set [2], the chromatographic logD was found to be 2.33 ± 0.04.

Regarding `O=C(O)c1cc(-c2ccc(CCCCO)cc2)cc(-n2cc(-c3ccc(C(F)(F)F)cc3)nn2)c1` [Compound 21, 4′-(4-Hydroxybutyl)-5-(4-(4-(trifluoromethyl)phenyl)-1H-1,2,3-triazol-1-yl)-[1,1′-biphenyl]-3-carboxylic acid], the IC50 in data set [3] (setting [6]) worked out at 9.22 ± 1.22 µM.

For the molecule `O=C(O)c1cc(-c2ccc(C3(O)C[C@H]4CNC[C@@H]4C3)cc2)c2ccc(-c3ccc(C(F)(F)F)cc3)cc2c1` (racemic) [Compound 411, rac-4-(4-((3aR,6aR)-5-hydroxyoctahydrocyclopenta[c]pyrrol-5-yl)phenyl)-7-(4-(trifluoromethyl)phenyl)-2-naphthoic acid], the IC50 in data set [3] (read-out: IC50) worked out at 0.00948 ± 0.00166 µM.

On to `O=C(O)c1cc(-c2ccc(C3CCN(CCCCc4cn([C@@H]5O[C@H](CO)[C@@H](O)[C@H](O)[C@H]5O)nn4)CC3)cc2)c2ccc(-c3ccc(C(F)(F)F)cc3)cc2c1` [Compound 508, 7-(4-(Trifluoromethyl)phenyl)-4-(4-(1-(4-(1-((2R,3R,4S,5S,6R)-3,4,5-trihydroxy-6-(hydroxymethyl)tetrahydro-2H-pyran-2-yl)-1H-1,2,3-triazol-4-yl)butyl)piperidin-4-yl)phenyl)-2-naphthoic acid], for which, in data set [3] (setting [4]), the half-maximal inhibitory concentration (IC50) turned out to be 0.0157 ± 0.0025 µM.

`N#CCCc1ccc(-c2cc(C(=O)O)cc(-n3cc(-c4ccc(C(F)(F)F)cc4)nn3)c2)cc1` [Compound 17, 4′-(2-Cyanoethyl)-5-(4-(4-(trifluoromethyl)phenyl)-1H-1,2,3-triazol-1-yl)-[1,1′-biphenyl]-3-carboxylic acid]: the IC50 in data set [3] (setting [6]) was 17.8 ± 2.9 µM.
